According to patent publication US20210277246A1, “PROBE FOR DETECTING CARBAPENEM-RESISTANT BACTERIA AND USE THEREOF” (priority 2018, published 2021):

Assays:
Assay in all cases: MIC of carbapenems for isolates
Assay type in all cases: cell-based
[1] = system: Citrobacter freundii (KPC); details: 1 isolate
[2] = system: Escherichia coli (KPC); details: 3 isolates
[3] = system: Klebsiella aerogenes (KPC); details: 1 isolate
[4] = system: Klebsiella oxytoca (KPC); details: 1 isolate
[5] = system: Klebsiella pneumoniae (GES); details: 1 isolate
[6] = system: Citrobacter freundii (NDM); details: 1 isolate
[7] = system: Enterobacter cloacae (NDM); details: 2 isolates
[8] = system: Escherichia coli (NDM); details: 4 isolates
[9] = system: Klebsiella pneumoniae (NDM); details: 1 isolate
[10] = system: Morganella morganii (NDM); details: 1 isolate
[11] = system: Enterobacter cloacae (VIM); details: 1 isolate
[12] = system: Klebsiella oxytoca (VIM); details: 1 isolate
[13] = system: Klebsiella pneumoniae (VIM); details: 1 isolate
[14] = system: Escherichia coli (IMP); details: 1 isolate
[15] = system: Citrobacter freundii (OXA); details: 1 isolate
[16] = system: Escherichia coli (OXA); details: 3 isolates
[17] = system: Klebsiella pneumoniae (OXA); details: 2 isolates
[18] = system: Klebsiella pneumoniae (KPC/OXA); details: KPC/OXA co-producing, 2 isolates
[19] = system: Klebsiella pneumoniae (NDM/OXA); details: NDM/OXA co-producing, 1 isolate
[20] = system: Citrobacter freundii (non-CP-CRE); details: 1 isolate
[21] = system: Enterobacter amnigenus (non-CP-CRE); details: Lelliottia amnigena, 4 isolates
[22] = system: Escherichia coli (non-CP-CRE); details: 8 isolates
[23] = system: Klebsiella pneumoniae (non-CP-CRE); details: 22 isolates
[24] = system: Escherichia coli (ESBL-producer, CTX-M); details: 29 isolates
[25] = system: Klebsiella pneumoniae (ESBL-producer, CTX-M); details: 24 isolates
[26] = system: Escherichia coli (non-producer); details: 32 isolates
[27] = system: Klebsiella pneumoniae (non-producer); details: 21 isolates

C[C@@H](O)[C@H]1C(=O)N2C(C(=O)O)=C(SCCN=CN)C[C@H]12 [IPM, imipenem]
MIC [1]: > 16 µg/mL
MIC [2]: 2 to 8 µg/mL
MIC [3]: > 16 µg/mL
MIC [4]: > 16 µg/mL
MIC [5]: > 16 µg/mL
MIC [6]: 8 µg/mL
MIC [7]: > 16 µg/mL
MIC [8]: 8 to 16 µg/mL
MIC [9]: > 16 µg/mL
MIC [10]: > 16 µg/mL
MIC [11]: 4 µg/mL
MIC [12]: 2 µg/mL
MIC [13]: > 16 µg/mL
MIC [14]: 1 µg/mL
MIC [15]: 2 µg/mL
MIC [16]: 0.5 to 8 µg/mL
MIC [17]: 2 to 4 µg/mL
MIC [18]: 4 to 16 µg/mL
MIC [19]: 4 µg/mL
MIC [20]: 1 µg/mL
MIC [21]: 8 to 16 µg/mL
MIC [22]: 0.5 to 16 µg/mL
MIC [23]: 0.5 to 16 µg/mL
MIC [24]: 0.25 to 1 µg/mL
MIC [25]: 0.25 to 1 µg/mL
MIC [26]: 0.25 to 0.5 µg/mL
MIC [27]: 0.25 to 1 µg/mL
